Reference: PubChem BioAssay (NCI)
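Step 1: Grow cells in 96-well plates. Step 2: Expose to compound for 48 hours at 5 concentrations. Step 3: Interpolate endpoints linearly; if unreached, use highest concentration. GI50 is the concentration that inhibits growth by half. TGI: total growth inhibition.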

Legend:
Test in all cases: NCI tumour cell line growth inhibition, 48 h
[1] = tested on: LOX IMVI melanoma
[2] = tested on: KM12 colon
[3] = tested on: SF-295 CNS
[4] = tested on: NCI-H226 lung
[5] = tested on: UO-31 renal
[6] = tested on: MALME-3M melanoma
[7] = tested on: HCT-15 colon
[8] = tested on: U251 CNS
[9] = tested on: SF-268 CNS
[10] = tested on: SNB-75 CNS

SMILES	TGI [1] [µM]	TGI [2] [µM]	TGI [3] [µM]	TGI [4] [µM]	TGI [5] [µM]	TGI [6] [µM]	TGI [7] [µM]	GI50 [8] [µM]	TGI [8] [µM]	GI50 [9] [µM]	TGI [9] [µM]	GI50 [1] [µM]	GI50 [2] [µM]	GI50 [3] [µM]	GI50 [4] [µM]	GI50 [5] [µM]	GI50 [7] [µM]	GI50 [10] [µM]	TGI [10] [µM]	GI50 [6] [µM]
O=c1cccccc1[O-].O=c1cccccc1[O-].O=c1cccccc1[O-].[Sm+3]	> 100	> 100	> 100	> 100	> 100	> 100	> 100	13.8	> 100	–	–	–	–	–	–	–	–	–	–	–
COc1cc(/C=C\c2cc(OC)c(OC)c(OC)c2)cc(NS(=O)(=O)c2ccc(Cl)cc2)c1OC	> 100	> 100	84	> 100	> 100	–	> 100	0.461	20.7	1.1	> 100	0.566	0.572	0.319	13.5	0.696	0.399	–	–	–
CCN(CC)CCOc1ccc2c(C)c(C(=O)OC)oc2c1C(=O)/C=C/c1ccc(OC)cc1	2.81	3.96	23.7	44.9	–	–	3.57	1.75	4.44	3.75	> 28.1	1.34	1.76	6.76	25.3	1.45	1.31	2.81	8.44	–
CN(C)c1ccc(O[Si](Oc2ccc(N(C)C)cc2)(Oc2ccc(N(C)C)cc2)Oc2ccc(N(C)C)cc2)cc1	> 100	> 100	> 100	> 100	> 100	> 100	–	–	> 100	–	> 100	–	–	–	–	–	–	–	> 100	–
NC(N)=N/N=C/c1c(-c2ccncc2)nc2sc(Cl)cn12	9.55	10.8	33.7	15.2	> 22.7	–	36.3	1.94	3.93	5.31	15.3	3.03	2.48	13.5	3.98	8.93	17.6	4.89	18.9	–
Nc1ncc(C2[C@H](CNC(=O)c3cc(Br)c[nH]3)C(CNC(=O)c3cc(Br)c[nH]3)[C@@H]2c2cnc(N)[nH]2)[nH]1 (some centres undefined)	> 50	> 50	> 50	> 50	> 50	> 50	> 50	> 50	> 50	> 50	> 50	> 50	> 50	> 50	> 50	> 50	> 50	–	–	> 50
CCOc1ccccc1NC(=O)C1=C(C)NC(C)=C(C(=O)Nc2ccccc2OCC)C1c1ccc([N+](=O)[O-])cc1	–	> 100	> 100	> 100	> 100	> 100	> 100	–	> 100	–	> 100	–	–	–	–	–	–	–	> 100	–
COC(=O)C1CCC(=O)N1/C(C)=N/NC(=O)Nc1ccc(Cl)c(Cl)c1 (centres undefined)	> 100	> 100	> 100	–	> 100	–	68.7	–	> 100	–	> 100	–	–	–	–	–	–	–	> 100	–
NNC(=O)N/N=C1\CN(c2ccc(Cl)cc2Cl)C(=O)C(=O)C1c1nc2ccccc2o1 (centres undefined)	–	> 100	–	> 100	> 100	> 100	–	–	> 100	–	> 100	–	–	–	–	–	–	–	> 100	–
COC(=O)c1ccc2[nH]c(O)c(C(=Nc3ccc(N(C)C(=O)CN4CCN(C)CC4)cc3)c3ccccc3)c2c1	1.92	5.52	21	4.99	3.86	2.86	8.4	–	–	1.33	7.94	0.552	0.0353	6.34	0.993	1.24	1.77	–	–	1.43
COc1ccc2c(c1)[n+](=O)c(C(C)=O)c(C)n2[O-]	> 100	> 100	> 100	> 100	> 100	> 100	> 100	–	> 100	–	> 100	–	–	–	–	–	–	–	–	–
O=C(O)Cn1ccc(=O)c2cc([N+](=O)[O-])ccc21	–	> 100	> 100	> 100	> 100	> 100	> 100	–	> 100	–	> 100	–	–	–	–	–	–	–	> 100	–
COc1ccc(C(=O)O/N=C2/CCCCC2CN(C)C)cc1 (centres undefined)	> 100	> 100	> 100	> 100	> 100	> 100	> 100	–	> 100	–	–	–	–	–	–	–	–	–	> 100	–
O=C(C(=O)c1cc(Br)ccc1O)c1cc(Br)ccc1O	13.6	11.4	6.27	–	6.51	6.12	24.1	2.8	9.94	3.41	21.1	3.48	3.21	1.98	–	1.97	4.05	3.26	29.4	2.24
COC(=O)c1sc(=NC(=S)N2CCCCC2)sc1C(=O)OC	–	> 100	–	> 100	> 100	> 100	> 100	–	> 100	–	> 100	–	–	–	–	–	–	–	> 100	–
c1ccc2c3c([nH]c2c1)C1C2CCCCN2C(c2ccncc2)N1CC3 (centres undefined)	> 100	> 100	> 100	–	34.8	> 100	> 100	–	> 100	–	–	–	–	–	–	–	–	–	89	–
Oc1ccccc1C=Nc1nc(OCc2ccccc2)nc2[nH]ncc12	46.2	47.1	39.3	40.6	> 100	38.2	> 100	22.4	62	20.1	77.5	18	20.4	19.9	16.5	30.5	38.3	–	–	16.6
Cc1nc(-n2nc(-c3ccccc3)cc2-c2ccccc2)sc1C(=O)/C=C/c1ccccc1	> 100	> 100	> 100	–	> 100	> 100	> 100	–	> 100	–	> 100	–	–	–	–	–	–	–	89.7	–
C/C(CC(=O)Nc1cccc([N+](=O)[O-])c1)=N\NC(=O)C[n+]1ccccc1	> 100	> 100	> 100	> 100	> 100	> 100	–	–	> 100	–	> 100	–	–	–	–	–	–	–	> 100	–
